Measurements as given in patent US11357779B2 (G1 Therapeutics, Inc., priority 2018, dated 2022).
Like-named read-outs stand apart in the source and are kept apart here.

Test: Plasma concentration versus time of Compound I and metabolite Compound III in patients dosed QD or BID with Form B of Compound II plus fulvestrant
Assay type: in vivo, human
Conditions: human, plasma, oral, 650 mg; for concentration at 8 day: Day 8; for concentration at 15 day: Day 15; for concentration at 22 day: Day 22; for concentration at 0 h: Day 29, 0.0 h; for concentration at 1 h: Day 29, 1.0 h; for concentration at 2 h: Day 29, 2.0 h; for concentration at 3 h: Day 29, 3.0 h; for concentration at 4 h: Day 29, 4.0 h; for concentration at 6 h: Day 29, 6.0 h
Description: Patients were enrolled into 1 of 2 parallel, independently operating, dose-escalation dosing cohorts with Form B of Compound II administered continuously either once daily (QD) or twice daily (BID) with food with fixed-dose fulvestrant (intramuscularly every 14 days for the first three injections and then every 28 days). Pre- or perimenopausal patients also received goserelin for the duration of study treatment. A […] agonist was started at least 28 days before the first dose of Form B, and those patients who were taking another LHRH agonist were switched to goserelin on Day 1. Patients were split into […] cohorts providing once a day (QD) dosing of 200 mg, 300 mg, 400 mg, 500 mg, or 650 mg of Form B, or twice a day (BID) dosing of 100 mg, 150 mg, or 200 mg of Form B. The second dose in BID cohorts was not administered in the evening until at least 12 hours after the initial morning dose of Form B. The dosing cohorts for Form B of Compound II are provided in Table 1.
Blood samples were collected at the following time points relative to the morning dose of Form B at Day 1 and at Day 29: pre-dose (0 hour) and 1, 2, 3, 4, 6, 8, 10, 12 (prior to the evening dose in the BID cohorts), and 24 (prior to the next day's morning dose) hours after dosing. A 5-minute time window was allowed for samples collected between the predose and 3 hours after Form B dosing. A 15-minute window was allowed for samples collected between 4 to 12 hours after Form B dosing. A 1-hour window was allowed for the sample collected 24 hours after Form B dosing. Blood samples for Compound I PK trough levels were collected pre-dose at Day 8, Day 15, and Day 22 prior to the morning administration of Compound I. Plasma concentrations of Compound I and its metabolite, Compound III, were measured using validated methods.
Analysis of plasma concentration versus time data for calculation of standard pharmacokinetic (PK) parameters following oral administration was conducted using Phoenix WinNonlin version 6.3 using actual blood sampling times.

[1] = Cohort 5, 650 mg QD of Form B, read-out: Trough Compound I Concentration, Max
[2] = Cohort 5, 650 mg QD of Form B, read-out: Trough Compound I Concentration, Mean
[3] = Cohort 5, 650 mg QD of Form B, read-out: Trough Compound I Concentration, Median
[4] = Cohort 5, 650 mg QD of Form B, read-out: Trough Compound I Concentration, Min
[5] = Cohort 5, 650 mg QD of Form B, read-out: Compound I Concentration, Max
[6] = Cohort 5, 650 mg QD of Form B, read-out: Compound I Concentration, Mean
[7] = Cohort 5, 650 mg QD of Form B, read-out: Compound I Concentration, Median
[8] = Cohort 5, 650 mg QD of Form B, read-out: Compound I Concentration, Min

Structure (SMILES): CC(C)N1CCN(c2ccc(Nc3ncc4cc5n(c4n3)C3(CCCCC3)CNC5=O)nc2)CC1 [Compound I, 2′-((5-(4-isopropylpiperazin-1-yl)pyridin-2-yl)amino)-7′,8′-dihydro-6′H-spiro[cyclohexane-1,9′-pyrazino[1′,2′:1,5]pyrrolo[2,3-d]pyrimidin]-6′-one]
- concentration at 8 h (650 mg QD of Form B, Day 1, 8.0 h, Median, read-out: Compound I Concentration): 60.3 ng/mL
- concentration at 10 h (650 mg QD of Form B, Day 1, 10.0 h, Mean, read-out: Compound I Concentration): 48.4 ng/mL
- concentration at 10 h (650 mg QD of Form B, Day 1, 10.0 h, Median, read-out: Compound I Concentration): 47.9 ng/mL
- concentration at 12 h (650 mg QD of Form B, Day 1, 12.0 h, Mean, read-out: Compound I Concentration): 37.4 ng/mL
- concentration at 12 h (650 mg QD of Form B, Day 1, 12.0 h, Median, read-out: Compound I Concentration): 37.3 ng/mL
- concentration at 24 h (650 mg QD of Form B, Day 1, […], Mean, read-out: Compound I Concentration): 17.1 ng/mL
- concentration at 24 h (650 mg QD of Form B, Day 1, […], Median, read-out: Compound I Concentration): 16 ng/mL
- concentration at 8 day [1]: 43.9 ng/mL
- concentration at 8 day [2]: 28.9 ng/mL
- concentration at 8 day [3]: 28.3 ng/mL
- concentration at 8 day [4]: 17 ng/mL
- concentration at 15 day [1]: 30.7 ng/mL
- concentration at 15 day [2]: 25.7 ng/mL
- concentration at 15 day [3]: 27.4 ng/mL
- concentration at 15 day [4]: 19.1 ng/mL
- concentration at 22 day [1]: 43.7 ng/mL
- concentration at 22 day [2]: 30.3 ng/mL
- concentration at 22 day [3]: 24 ng/mL
- concentration at 22 day [4]: 23.3 ng/mL
- concentration at 0 h [5]: 28.9 ng/mL
- concentration at 0 h [6]: 20.9 ng/mL
- concentration at 0 h [7]: 22.5 ng/mL
- concentration at 0 h [8]: 11.4 ng/mL
- concentration at 1 h [5]: 29.6 ng/mL
- concentration at 1 h [6]: 20.9 ng/mL
- concentration at 1 h [7]: 20.9 ng/mL
- concentration at 1 h [8]: 12.1 ng/mL
- concentration at 2 h [5]: 34.9 ng/mL
- concentration at 2 h [6]: 25.9 ng/mL
- concentration at 2 h [7]: 25.9 ng/mL
- concentration at 2 h [8]: 16.8 ng/mL
- concentration at 3 h [5]: 39.5 ng/mL
- concentration at 3 h [6]: 28.4 ng/mL
- concentration at 3 h [7]: 28.4 ng/mL
- concentration at 3 h [8]: 17.2 ng/mL
- concentration at 4 h [5]: 43.8 ng/mL
- concentration at 4 h [6]: 33.1 ng/mL
- concentration at 4 h [7]: 33.1 ng/mL
- concentration at 4 h [8]: 22.3 ng/mL
- concentration at 6 h [5]: 79.3 ng/mL
- concentration at 6 h [6]: 58.8 ng/mL
- concentration at 6 h [7]: 58.8 ng/mL
- concentration at 6 h [8]: 38.2 ng/mL
- concentration at 8 h (Cohort 5, 650 mg QD of Form B, Day 29, 8.0 h, read-out: Compound I Concentration, Max): 88.7 ng/mL
- concentration at 8 h (Cohort 5, 650 mg QD of Form B, Day 29, 8.0 h, read-out: Compound I Concentration, Mean): 66 ng/mL
- concentration at 8 h (Cohort 5, 650 mg QD of Form B, Day 29, 8.0 h, read-out: Compound I Concentration, Median): 66 ng/mL
- concentration at 8 h (Cohort 5, 650 mg QD of Form B, Day 29, 8.0 h, read-out: Compound I Concentration, Min): 43.2 ng/mL
- concentration at 10 h (Cohort 5, 650 mg QD of Form B, Day 29, 10.0 h, read-out: Compound I Concentration, Max): 78.2 ng/mL
- concentration at 10 h (Cohort 5, 650 mg QD of Form B, Day 29, 10.0 h, read-out: Compound I Concentration, Mean): 58.1 ng/mL
- concentration at 10 h (Cohort 5, 650 mg QD of Form B, Day 29, 10.0 h, read-out: Compound I Concentration, Median): 58.1 ng/mL
- concentration at 10 h (Cohort 5, 650 mg QD of Form B, Day 29, 10.0 h, read-out: Compound I Concentration, Min): 37.9 ng/mL
- concentration at 12 h (Cohort 5, 650 mg QD of Form B, Day 29, 12.0 h, read-out: Compound I Concentration, Max): 63.2 ng/mL
- concentration at 12 h (Cohort 5, 650 mg QD of Form B, Day 29, 12.0 h, read-out: Compound I Concentration, Mean): 46.3 ng/mL
- concentration at 12 h (Cohort 5, 650 mg QD of Form B, Day 29, 12.0 h, read-out: Compound I Concentration, Median): 46.3 ng/mL
- concentration at 12 h (Cohort 5, 650 mg QD of Form B, Day 29, 12.0 h, read-out: Compound I Concentration, Min): 29.4 ng/mL
- concentration at 24 h (Cohort 5, 650 mg QD of Form B, Day 29, […], read-out: Compound I Concentration, Max): 27.8 ng/mL
- concentration at 24 h (Cohort 5, 650 mg QD of Form B, Day 29, […], read-out: Compound I Concentration, Mean): 24.3 ng/mL
- concentration at 24 h (Cohort 5, 650 mg QD of Form B, Day 29, […], read-out: Compound I Concentration, Median): 24.3 ng/mL
- concentration at 24 h (Cohort 5, 650 mg QD of Form B, Day 29, […], read-out: Compound I Concentration, Min): 20.7 ng/mL
